Patent publication US9505786B2, “Substituted annulated triazines and use thereof” (BAYER INTELLECTUAL PROPERTY GMBH, priority 2012, dated 2016)

Key:
[1] = biological target: human phosphodiesterase 5 (PDE 5) (Homo sapiens (Human), UniProt O76074); test: Inhibition of human phosphodiesterase 5 (PDE 5), SPA assay; type: biochemical; conditions: PDE 5 preparation from human platelets, [8-3H] cGMP substrate
Protocol: B-6. Inhibition of Human Phosphodiesterase 5 (PDE 5)
PDE 5 preparations are obtained from human platelets by disruption (Microfluidizer®, 800 bar, 3 passes), followed by centrifugation (75 000 g, 60 min, 4° C.) and ion exchange chromatography of the supernatant on a Mono Q 10/10 column (linear sodium chloride gradient, elution with a 0.2-0.3M solution of sodium chloride in buffer (20 mM Hepes pH 7.2, 2 mM magnesium chloride). Fractions having PDE 5 activity are combined (PDE 5 preparation) and stored at −80° C.
To determine their in vitro action on human PDE 5, the test substances are dissolved in 100% DMSO and serially diluted. Typically, dilution series (1:3) from 200 μM to 0.091 μM are prepared (resulting final concentrations in the test: 4 μM to 0.0018 μM). In each case 2 μl of the diluted substance solutions are placed into the wells of microtitre plates (Isoplate-96/200W; Perkin Elmer). Subsequently, 50 μl of a dilution of the above-described PDE 5 preparation are added. The dilution of the PDE 5 preparation is chosen such that during the later incubation less than 70% of the substrate are converted (typical dilution: 1:100; dilution buffer: 50 mM Tris/hydrochloric acid pH 7.5, 8.3 mM magnesium chloride, 1.7 mM EDTA, 0.2% BSA). The substrate, [8-^3H] cyclic guanosine-3′,5′-monophosphate (1 μCi/μl; Perkin Elmer) is diluted 1:2000 with assay buffer (50 mM tris/hydrochloric acid pH 7.5, 8.3 mM magnesium chloride, 1.7 mM EDTA) to a concentration of 0.0005 μCi/μl. By addition of 50 μl (0.025 μCi) of the diluted substrate, the enzyme reaction is finally started. The test mixtures are incubated at room temperature for 60 min and the reaction is stopped by adding 25 μl of a suspension of 18 mg/ml yttrium scintillation proximity beads in water (phosphodiesterase beads for SPA assays, RPNQ 0150, Perkin Elmer). The microtitre plates are sealed with a film and left to stand at room temperature for 60 min. Subsequently, the plates are analysed for 30 s per well in a Microbeta scintillation counter (Perkin Elmer). IC50 values are determined using the graphic plot of the substance concentration against percentage PDE 5 inhibition.

[2] = test system: recombinant guanylate cyclase reporter cell line; test: Effect on a recombinant guanylate cyclase reporter cell line; type: cell-based
Protocol: B-2. Effect on a Recombinant Guanylate Cyclase Reporter Cell Line
The cellular activity of the compounds according to the invention is determined using a recombinant guanylate cyclase reporter cell line, as described in F. Wunder et al., Anal. Biochem. 339, 104-112 (2005).

Row | SMILES | IC50 [1] [nM] | MEC (minimum effective concentration) [2] [nM]
1 | C=CCCC1(C)C(=O)Nc2nc(-c3nn(Cc4ccccc4F)c4ncccc34)nnc21 (racemic) [Example 23, (rac) (7S)-7-(But-3-en-1-yl)-3-[1-(2-fluorobenzyl)-1H-pyrazolo[3,4-b]pyridin-3-yl]-7-methyl-5,7-dihydro-6H-pyrrolo[2,3-e][1,2,4]triazin-6-one] | 140 | 30
2 | CCOC(=O)C1(C)CC(=O)Nc2nc(-c3nn(Cc4ccccc4F)c4ncccc34)nnc21 (centres unmarked) [Example 2, Ethyl 3-[1-(2-fluorobenzyl)-1H-pyrazolo[3,4-b]pyridin-3-yl]-8-methyl-6-oxo-5,6,7,8-tetrahydropyrido[2,3-e][1,2,4]triazine-8-carboxylate] | 490 | 300
3 | CC1(CC2CC2)C(=O)Nc2nc(-c3nn(Cc4ccccc4F)c4ncc(F)cc34)nnc21 (racemic) [Example 5-1, 7-(Cyclopropylmethyl)-3-[5-fluoro-1-(2-fluorobenzyl)-1H-pyrazolo[3,4-b]pyridin-3-yl]-7-methyl-5,7-dihydro-6H-pyrrolo[2,3-e][1,2,4]triazin-6-one] |  | 100
4 | CC1(C)C(=O)Nc2nc(-c3nn(Cc4ccccc4F)c4ncccc34)nc(Cl)c21 [Example 60, 4-Chloro-2-[1-(2-fluorobenzyl)-1H-pyrazolo[3,4-b]pyridin-3-yl]-5,5-dimethyl-5,7-dihydro-6H-pyrrolo[2,3-d]pyrimidin-6-one] |  | 300
5 | CCC1(C)C(=O)Nc2nc(-c3nn(Cc4ccccc4F)c4ncc(F)cc34)nnc21 (racemic) [Example 7-1, 7-Ethyl-3-[5-fluoro-1-(2-fluorobenzyl)-1H-pyrazolo[3,4-b]pyridin-3-yl]-7-methyl-5,7-dihydro-6H-pyrrolo[2,3-e][1,2,4]triazin-6-one] |  | 100
6 | CC(C)(O)CCc1nc(-c2nn(Cc3ccccc3F)c3ncccc23)nc2c1C(C)(C)C(=O)N2 [Example 59, 2-[1-(2-Fluorobenzyl)-1H-pyrazolo[3,4-b]pyridin-3-yl]-4-(3-hydroxy-3-methylbutyl)-5,5-dimethyl-5,7-dihydro-6H-pyrrolo[2,3-d]pyrimidin-6-one] |  | 300
7 | Cc1nc(-c2nn(Cc3ccccc3F)c3ncccc23)nc2c1C(C)(C)C(=O)N2 [Example 22, 2-[1-(2-Fluorobenzyl)-1H-pyrazolo[3,4-b]pyridin-3-yl]-4,5,5-trimethyl-5,7-dihydro-6H-pyrrolo[2,3-d]pyrimidin-6-one] | 130 | 100
8 | COc1ccc(Cn2nc(-c3nnc4c(n3)NC(=O)C4(C)C)c3cc(F)cnc32)cc1 [Example 8, 3-[5-Fluoro-1-(4-methoxybenzyl)-1H-pyrazolo[3,4-b]pyridin-3-yl]-7,7-dimethyl-5,7-dihydro-6H-pyrrolo[2,3-e][1,2,4]triazin-6-one] | 150 | 3000
9 | CC1(C)C(=O)Nc2nc(-c3nn(Cc4ccccc4F)c4ncccc34)nc(CNS(C)(=O)=O)c21 [Example 24, N-({2-[1-(2-Fluorobenzyl)-1H-pyrazolo[3,4-b]pyridin-3-yl]-5,5-dimethyl-6-oxo-6,7-dihydro-5H-pyrrolo[2,3-d]pyrimidin-4-yl}methyl)methanesulphonamide] | 48 | 30
10 | CC1(CC2CC2)C(=O)Nc2nc(-c3nn(Cc4ccccc4F)c4ncc(F)cc34)nnc21 (racemic) [Example 5-2, 7-(Cyclopropylmethyl)-3-[5-fluoro-1-(2-fluorobenzyl)-1H-pyrazolo[3,4-b]pyridin-3-yl]-7-methyl-5,7-dihydro-6H-pyrrolo[2,3-e][1,2,4]triazin-6-one] |  | 300
11 | CC(C)(C)OC(=O)C#Cc1nc(-c2nn(Cc3ccccc3F)c3ncccc23)nc2c1C(C)(C)C(=O)N2 [Example 50, tert-Butyl 3-{2-[1-(2-fluorobenzyl)-1H-pyrazolo[3,4-b]pyridin-3-yl]-5,5-dimethyl-6-oxo-6,7-dihydro-5H-pyrrolo[2,3-d]pyrimidin-4-yl}prop-2-ynoate] |  | 300
12 | CCC1(C)C(=O)Nc2nc(-c3nn(Cc4ccccc4F)c4ncc(F)cc34)nnc21 (racemic) [Example 7-2, 7-Ethyl-3-[5-fluoro-1-(2-fluorobenzyl)-1H-pyrazolo[3,4-b]pyridin-3-yl]-7-methyl-5,7-dihydro-6H-pyrrolo[2,3-e][1,2,4]triazin-6-one] |  | 100
13 | CC1(C)C(=O)Nc2nc(-c3nn(Cc4ccccc4F)c4ncccc34)nc(C#CC(=O)O)c21 [Example 62, 3-{2-[1-(2-Fluorobenzyl)-1H-pyrazolo[3,4-b]pyridin-3-yl]-5,5-dimethyl-6-oxo-6,7-dihydro-5H-pyrrolo[2,3-d]pyrimidin-4-yl}prop-2-ynoic acid] |  | 30
14 | CC1(C)C(=O)Nc2nc(-c3nn(Cc4ccccc4F)c4ncc(F)cc34)nc(CNC(=O)C3CC3)c21 [Example 56, N-({2-[5-Fluoro-1-(2-fluorobenzyl)-1H-pyrazolo[3,4-b]pyridin-3-yl]-5,5-dimethyl-6-oxo-6,7-dihydro-5H-pyrrolo[2,3-d]pyrimidin-4-yl}methyl)cyclopropanecarboxamide] |  | 30

The next lines start with results.

Row | IC50 [1] [nM] | SMILES | MEC (minimum effective concentration) [2] [nM]
15 | 1500 | CCOC(=O)C1C(=O)Nc2nc(-c3nn(Cc4ccccc4F)c4ncccc34)nnc21 (racemic) [Example 25, (rac) Ethyl 3-[1-(2-fluorobenzyl)-1H-pyrazolo[3,4-b]pyridin-3-yl]-6-oxo-6,7-dihydro-5H-pyrrolo[2,3-e][1,2,4]triazine-7-carboxylate] | 100
16 | 145 | CC1(C)C(=O)Nc2nc(-c3nn(Cc4ccccc4F)c4ncc(F)cc34)nc(CN3CCCC3=O)c21 [Example 54, 2-[5-Fluoro-1-(2-fluorobenzyl)-1H-pyrazolo[3,4-b]pyridin-3-yl]-5,5-dimethyl-4-[(2-oxopyrrolidin-1-yl)methyl]-5,7-dihydro-6H-pyrrolo[2,3-d]pyrimidin-6-one] | 100
17 | 15 | CC1(C)C(=O)Nc2nc(-c3nn(Cc4ccccc4F)c4ncccc34)nc(CC(N)=O)c21 [Example 61, 2-{2-[1-(2-Fluorobenzyl)-1H-pyrazolo[3,4-b]pyridin-3-yl]-5,5-dimethyl-6-oxo-6,7-dihydro-5H-pyrrolo[2,3-d]pyrimidin-4-yl}acetamide] | 30
18 | 4000 | CC1(C(=O)NC2CC2)C(=O)Nc2nc(-c3nn(CCC(F)(F)F)c4ncccc34)ncc21 (racemic) [Example 49, (rac) N-Cyclopropyl-5-methyl-6-oxo-2-[1-(3,3,3-trifluoropropyl)-1H-pyrazolo[3,4-b]pyridin-3-yl]-6,7-dihydro-5H-pyrrolo[2,3-d]pyrimidine-5-carboxamide] | 300
19 | 3400 | CC1(CC(=O)O)C(=O)Nc2nc(-c3nn(Cc4ccccc4F)c4ncccc34)nnc21 (racemic) [Example 26, (rac) {3-[1-(2-Fluorobenzyl)-1H-pyrazolo[3,4-b]pyridin-3-yl]-7-methyl-6-oxo-6,7-dihydro-5H-pyrrolo[2,3-e][1,2,4]triazin-7-yl}acetic acid] | 300
20 | 215 | CCOC(=O)/C=C/c1nc(-c2nn(Cc3ccccc3F)c3ncccc23)nc2c1C(C)(C)C(=O)N2 [Example 27, Ethyl 3-{2-[1-(2-fluorobenzyl)-1H-pyrazolo[3,4-b]pyridin-3-yl]-5,5-dimethyl-6-oxo-6,7-dihydro-5H-pyrrolo[2,3-d]pyrimidin-4-yl}acrylate] | 300
21 | 3900 | CC1(CC(=O)O)C(=O)Nc2nc(-c3nn(Cc4ccccc4F)c4ncc(F)cc34)nnc21 (racemic) [Example 52, (rac){3-[5-Fluoro-1-(2-fluorobenzyl)-1H-pyrazolo[3,4-b]pyridin-3-yl]-7-methyl-6-oxo-6,7-dihydro-5H-pyrrolo[2,3-e][1,2,4]triazin-7-yl}acetic acid] | 1000
22 | 190 | CC1(C)C(=O)Nc2nc(-c3nn(Cc4ccccc4F)c4ncc(F)cc34)nc(CNS(=O)(=O)C3CC3)c21 [Example 55, N-({2-[5-Fluoro-1-(2-fluorobenzyl)-1H-pyrazolo[3,4-b]pyridin-3-yl]-5,5-dimethyl-6-oxo-6,7-dihydro-5H-pyrrolo[2,3-d]pyrimidin-4-yl}methyl)cyclopropanesulphonamide] | 30
